The source of these data is ChEMBL document CHEMBL1201862, “PubChem BioAssay data set” (2004).

Molecules are shown by their SMILES.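 Values below derive from 48-hour exposures of cells grown in 96-well plates, with endpoints linearly interpolated between the two concentrations bracketing the appropriate inhibition level. The concentration for 50% growth inhibition is given as GI50.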 Activity calls are given as the source filed them. Rule as the data show it: active = GI50 up to about 1.1 µM and inactive = higher.

Holding throughout (assay): NCI tumour cell line growth inhibition, 48 h
Test [1] deals with SN12C.
Test [2] has as its system SNB-19.
The test system of test [3] is UO-31.
For test [4], the system named is EKVX.
Test [5] concerns MDA-MB-435.
The test system of test [6] is MDA-N.
Test [7] concerns HCC 2998.
In test [8] the test system is HOP-62.
The test system of test [9] is TK-10.
In test [10] the test system is CAKI-1.
The subject of test [11] is HCT-15.
The subject of test [12] is Malme-3M.
Test [13] deals with A549.
Test [14] deals with SK-MEL-28.
In test [15] the test system is NCI-H226.
Test [16] has as its system SK-OV-3.
Test [17] deals with SK-MEL-5.
The subject of test [18] is KM12.
The subject of test [19] is SF-295.

For the molecule `Nn1c(Nc2ccc(S(=O)(=O)Nc3ncccn3)cc2)nnc(/C=C/c2c(O)ccc3ccccc23)c1=O`, the GI50 was 28.3 µM (inactive) in test [1]; 46.9 µM (inactive) in [2]; 30.5 µM (inactive) in [3]; 24.2 µM (inactive) in [4]; 25.2 µM (inactive) in test [5]; 31.4 µM (inactive) in [6]. The GI50 was 23.3 µM (inactive) in [7]; 33.6 µM (inactive) in test [8]; 26.8 µM (inactive) in [9]; 26.7 µM (inactive) in test [10]; 27.3 µM in test [11]; 30.8 µM (inactive) in [12]. In addition, the GI50 in test [13] was 46 µM (inactive).
Take `O=c1c2cc([N+](=O)[O-])cnc2sn1-c1ccc(Oc2ccccc2)cc1`: the GI50 in [1] is > 100 µM (inactive); in [2], 32.6 µM (inactive); in test [3], 56.6 µM (inactive); in test [14] it was 22.4 µM (inactive); in test [15], 45.2 µM (inactive); in test [16], 19.8 µM (inactive). The GI50 in [4] was 70.6 µM (inactive); in test [17] it was 88.5 µM (inactive); in test [18], 78.5 µM (inactive); in test [5], 34 µM (inactive); in [6] it was 78 µM (inactive); in test [19], 31 µM (inactive). For the same molecule, the GI50 in test [7] was > 100 µM (inactive); in [8], 34.2 µM (inactive); in test [9] it was > 100 µM (inactive); in test [11] it was more than 100 µM; in test [12] it was 21.7 µM (inactive); in test [13], > 100 µM (inactive).
With `Cc1noc(-c2ccc(C(=O)O)[nH]2)c1Br`, the GI50 in test [2] was 37.4 µM (inactive); in test [3], 71.6 µM (inactive); in [14] it was > 100 µM (inactive); in test [16], 38.6 µM (inactive); in [4], 30.9 µM (inactive); in test [17], > 100 µM (inactive). The GI50 in test [18] is > 100 µM (inactive); in [5] it was > 100 µM (inactive); in test [6] it was > 100 µM (inactive); in test [19], 28.1 µM (inactive); in [7], 65 µM (inactive); in test [8], 22.5 µM (inactive). Also, the GI50 was 31.5 µM (inactive) in test [9]; 34.2 µM (inactive) in test [10]; more than 100 µM in test [11]; 69.8 µM (inactive) in test [12]; 45.2 µM (inactive) in test [13].
Turning to `C[N+](C)(N)Cc1nc(-c2ccc(Cl)cc2)no1`, the GI50 in [1] was > 100 µM (inactive); in test [2], > 100 µM (inactive); in test [14] it was > 100 µM (inactive); in test [15], > 100 µM (inactive); in [16], > 100 µM (inactive); in test [4], 37.7 µM (inactive). In addition, the GI50 in test [17] is 75.3 µM (inactive); in [18] it was > 100 µM (inactive); in [5], > 100 µM (inactive); in test [6] it was > 100 µM (inactive); in test [19], > 100 µM (inactive); in test [8], 88.9 µM (inactive). Moreover, the GI50 in [9] was > 100 µM (inactive); in [10], > 100 µM (inactive); in test [11], more than 100 µM; in [12] it was > 100 µM (inactive); in [13], > 100 µM (inactive).
With `C=CC1(CCC(Br)C(C)(C)Cl)CO1` (stereo unspecified), the GI50 in test [1], in [2], in test [3], in [14], in [16] and in test [4] was > 10 µM (inactive) in each case. Also, the GI50 in test [17], in test [18], in test [5], in test [6], in test [19] and in test [7] was > 10 µM (inactive) in each case. The GI50 is > 10 µM (inactive) in [8]; > 10 µM (inactive) in [9]; > 10 µM (inactive) in [10]; more than 10 µM in [11]; > 10 µM (inactive) in test [12]; > 10 µM (inactive) in [13].
As to `COc1cc(O)c(C(C)=O)c(O)c1`, the GI50 in [1] is 59 µM (inactive); in [3], 59.6 µM (inactive); in [14] it was 52.6 µM (inactive); in test [16] it was > 100 µM (inactive); in [4], 37.4 µM (inactive); in test [17], 35.3 µM (inactive). Further, the GI50 is > 100 µM (inactive) in test [18]; 82.6 µM (inactive) in [5]; > 100 µM (inactive) in test [6]; 92.5 µM (inactive) in [19]; > 100 µM (inactive) in test [7]; > 100 µM (inactive) in [8]. Besides, the GI50 was > 100 µM (inactive) in test [9], 76.7 µM in [11], > 100 µM (inactive) in test [12] and > 100 µM (inactive) in test [13].
Take `CCN(CC)C(=S)SC(C(=O)Nc1nnc(-c2ccccc2)o1)c1ccccc1` (stereo unspecified): the GI50 in [1] was 10.3 µM (inactive); in [2] it was 29.8 µM (inactive); in test [3] it was 10.1 µM (inactive); in test [14], 17.9 µM (inactive); in test [15], 24.7 µM (inactive); in test [16] it was 32.4 µM (inactive). For the same molecule, the GI50 is 18.4 µM (inactive) in test [4]; 14.6 µM (inactive) in test [17]; 20.2 µM (inactive) in test [18]; 17.1 µM (inactive) in test [5]; 16.6 µM (inactive) in [6]; 15.6 µM (inactive) in test [19]. In addition, the GI50 is 20.9 µM (inactive) in [8]; 44.5 µM (inactive) in test [9]; 19.4 µM (inactive) in test [10]; 5.24 µM in test [11]; 20.4 µM (inactive) in test [12]; 15.3 µM (inactive) in test [13].
For the molecule `COc1ccc(-c2cc(-c3ccc(Cl)cc3)n(C3OC(CO)C(O)C(O)C3O)c(=S)c2C#N)cc1` (stereo unspecified), the GI50 in [1] was > 100 µM (inactive); in test [2], > 100 µM (inactive); in test [3], 16.8 µM (inactive); in [14], 72.8 µM (inactive); in test [16], > 100 µM (inactive); in [17] it was 16.8 µM (inactive). In addition, the GI50 in [18] was 49.9 µM (inactive); in test [5] it was 75.5 µM (inactive); in [6] it was > 100 µM (inactive); in [19], > 100 µM (inactive); in test [7], 64.9 µM (inactive); in test [8], 57.8 µM (inactive). Further, the GI50 in [9] is 30.3 µM (inactive); in test [11], 38.5 µM.
In the case of `CCOC(=O)/C1=C(\C)N(Cc2ccccc2)C(=O)c2ccccc2C(=O)c2c(OC(C)=O)ccc(OC(C)=O)c21`, the GI50 was > 100 µM (inactive) in test [1]; > 100 µM (inactive) in [2]; > 100 µM (inactive) in test [3]; > 100 µM (inactive) in test [14]; > 100 µM (inactive) in test [16]; 18.3 µM (inactive) in test [4]. Also, the GI50 in test [17] was 33.3 µM (inactive); in test [18], 47 µM (inactive); in test [5], 47.6 µM (inactive); in test [6], 36 µM (inactive); in test [19] it was 29 µM (inactive); in test [7] it was 7.6 µM (inactive). In addition, the GI50 in [8] is 40.6 µM (inactive); in test [9] it was 58.3 µM (inactive); in test [10], 72.3 µM (inactive); in test [11] it was 69.3 µM; in test [12], 69.8 µM (inactive); in test [13], 36.4 µM (inactive).
Consider `CN(CCCNC(=O)c1nn(-c2ccc(Cl)cc2Cl)c2c1Cc1ccccc1-2)CCCNC(=O)c1nn(-c2ccc(Cl)cc2Cl)c2c1Cc1ccccc1-2`, for which the GI50 in test [1] is 1.67 µM (inactive); in test [2], 1.77 µM (inactive); in [3], 1.82 µM (inactive); in test [14], 1.69 µM (inactive); in [16], 1.78 µM (inactive); in [4], 1.66 µM (inactive). Besides, the GI50 was 1.68 µM (inactive) in test [17]; 2.37 µM (inactive) in test [18]; 1.48 µM (inactive) in [5]; 1.7 µM (inactive) in test [6]; 1.72 µM (inactive) in [19]; 1.64 µM (inactive) in [7]. In addition, the GI50 is 1.72 µM (inactive) in [8]; 1.73 µM (inactive) in [9]; 1.55 µM (inactive) in [10]; 1.84 µM in test [11]; 1.78 µM (inactive) in test [12]; 1.77 µM (inactive) in test [13].
As to `CCCCCCCCCCCCCC1=C(O)C(=O)C(CC2=C(O)C(=O)C(CCCCCCCCCCCCC)=C(O)C2=O)=C(O)C1=O`, the GI50 in test [1] was > 100 µM (inactive); in test [2], 27.9 µM (inactive); in test [3], > 100 µM (inactive); in [14] it was > 100 µM (inactive); in test [15], > 100 µM (inactive); in test [16], 44.7 µM (inactive). Besides, the GI50 is > 100 µM (inactive) in [4]; > 100 µM (inactive) in test [17]; > 100 µM (inactive) in test [18]; > 10 µM (inactive) in test [5]; > 100 µM (inactive) in [6]; 52 µM (inactive) in [19]. For the same molecule, the GI50 in test [9] was 61.4 µM (inactive); in test [10], > 100 µM (inactive); in test [12], > 100 µM (inactive); in test [13] it was > 100 µM (inactive).
With `O=c1ss/c(=N\c2ccccc2)n1-c1ccccc1`, the GI50 in test [1] was 20.4 µM (inactive); in test [2], 62.5 µM (inactive); in [3], 17.5 µM (inactive); in [14], 36.9 µM (inactive); in test [15] it was 20.1 µM (inactive); in [16], > 100 µM (inactive). Further, the GI50 is 33.7 µM (inactive) in test [4]; 32.4 µM (inactive) in test [17]; 30.8 µM (inactive) in test [18]; 31.9 µM (inactive) in test [5]; 34.5 µM (inactive) in test [6]; > 100 µM (inactive) in test [19]. The GI50 in [7] is 36.8 µM (inactive); in test [8], 20.6 µM (inactive); in [9], 50.6 µM (inactive); in test [11] it was 17.8 µM; in [12], > 100 µM (inactive); in test [13] it was 35.4 µM (inactive).
